Usually solubility (kinetic) stands for solubility judged after dilution from a stock solution rather than from solid.

Values after ≈ are worked out from the molar mass of the structure shown. Some results are limits rather than exact numbers.

These results are taken from PubChem BioAssay AID1996.

The conditions of the data set: buffer; pH 7.4; 200.0 µM.
As for `CC(C)NC(=O)CN1CCN(C(=O)CCl)CC1.Cl`, the kinetic solubility is > 44.7 µg/mL.
The compound `CCOC(=O)C1CCN(Cc2ccc(-c3ccccc3)cc2)CC1` came in with a kinetic solubility of 25.6 µg/mL (≈ 79.2 µM).
With `Cc1ccc(OCC(=O)NCCCNC(=O)c2cccnc2)cc1C`, the solubility (kinetic) is > 51.2 µg/mL.
In the case of `O=C(Nc1ccc(F)c([N+](=O)[O-])c1)C(=O)c1c(O)[nH]c2ccccc12`, the solubility (kinetic) was > 51.5 µg/mL.
As for `NS(=O)(=O)c1cnccc1Nc1cccc(Br)c1`, the figure is 36.3 µg/mL (≈ 111 µM); as for `Cc1cc(C(=O)Nc2ccccc2C)c2ccccc2n1`, 34.7 µg/mL (≈ 126 µM).
As to `CCOC(=O)c1ccc(NC(C)=O)c([N+](=O)[O-])c1`, the solubility (kinetic) is > 37.8 µg/mL.
Take `CCOc1ccc(N(C)S(=O)(=O)c2cnc[nH]2)cc1`: the kinetic solubility was > 42.2 µg/mL.
Turning to `CC(C)[C@H](NS(=O)(=O)c1cccc(C(F)(F)F)c1)C(=O)OCC(=O)NC(=O)NCc1ccco1`, the solubility (kinetic) amounted to 13.4 µg/mL (≈ 26.5 µM).
The compound `O=C(COC(=O)c1ccc(S(=O)(=O)N2CCOCC2)cc1)NCc1ccccc1` returned a kinetic solubility of 8.6 µg/mL (≈ 20.6 µM).
On to `O=C(CCNC(=O)c1ccccc1Cl)Nc1ccccc1N1CCCC1`, for which the kinetic solubility stood at 48.6 µg/mL (≈ 131 µM).
In the case of `CN(C(=O)Cn1nc(C(=O)O)c2ccccc2c1=O)C1CCCCC1`, the solubility (kinetic) is > 51.5 µg/mL.
As for `Cc1ccc(S(=O)(=O)N2CCOCC2)cc1C(=O)OCC(=O)NCCc1ccc(F)cc1`, the solubility (kinetic) is 60.2 µg/mL (≈ 130 µM).
With `Cn1c(C(=O)N2CCN(c3ccccc3)CC2)cc2cc(Cl)ccc21`, the solubility (kinetic) is 4.4 µg/mL (≈ 12.4 µM).
Regarding `Cc1ccc(OCCCCCCN2CCNCC2)cc1.O=C(O)C(=O)O`, the kinetic solubility was > 55 µg/mL.
On to `COc1ccc(OCc2nc(-c3ccc(F)c(F)c3)cs2)cc1`, for which the kinetic solubility was < 0.7 µg/mL.
As for `O=C(NCc1ccccc1)N1CCCC1`, the solubility (kinetic) is > 30.6 µg/mL.
On to `COc1ncnc2c1oc1nc(C)c3c(c12)CC(C)(C)OC3`, for which the solubility (kinetic) stood at 4.9 µg/mL (≈ 16.4 µM).
On to `Clc1ccc2c(NCc3ccccn3)ccnc2c1`, for which the kinetic solubility was > 40.5 µg/mL.
`CCOc1ccc(NC(=O)/C(C=Nc2ccccc2)=C(\C)O)cc1` came in with a solubility (kinetic) of 1 µg/mL (≈ 3.08 µM).
Regarding `CC(=O)c1cc(C(C)=O)c(C)nc1C`, the solubility (kinetic) was > 28.7 µg/mL.
With `CCCN1CCC(NC(=O)Nc2cccc3ccccc23)CC1`, the kinetic solubility is > 46.7 µg/mL.
For `Cc1cc(C)c(C)c(S(=O)(=O)NCCCN2CCOCC2)c1C`, the solubility (kinetic) was > 51.1 µg/mL.
For `CCCCn1c(O)c(C(C)=NCCc2c[nH]c3ccccc23)c(=O)[nH]c1=O`, the solubility (kinetic) came out at 0.4 µg/mL (≈ 1.09 µM).
`CC(=O)c1ccc(N2CCN(C(C)C(=O)Nc3ccc4c(c3)OCCO4)CC2)cc1` (configuration not stated): the solubility (kinetic) is 5.1 µg/mL (≈ 12.5 µM).
Turning to `Clc1ccc(COn2ccnc2)cc1Cl`, the solubility (kinetic) was > 36.5 µg/mL.
For `Cc1ccc(C(=O)NCC(=O)NC2CCC(C)CC2)s1` (configuration not stated), the solubility (kinetic) worked out at 7.6 µg/mL (≈ 25.8 µM).
Consider `Cc1nccn1CC(=O)N/N=C/c1ccccc1O`, for which the kinetic solubility was > 38.7 µg/mL.
Compound `O=[N+]([O-])c1ccc2c(c1)/C(=N\O)c1ccccc1-2` displayed a kinetic solubility of 0.5 µg/mL (≈ 2.08 µM).
`CCc1cccc(NC(=O)c2cc(OC)c(OC)c(OC)c2)c1` gave a kinetic solubility of 34.2 µg/mL (≈ 108 µM).
The compound `NS(=O)(=O)c1cccc(NC(=O)CCCC2CCCCC2)c1` showed a solubility (kinetic) of 8.8 µg/mL (≈ 27.1 µM).
Take `CN(C)C(=O)CSc1nnc(Cc2ccc3c(c2)OCO3)o1`: the kinetic solubility was > 48.2 µg/mL.
Take `Cc1onc(-c2ccccc2Cl)c1C(=O)OCC(=O)N1CCCCC1`: the solubility (kinetic) was > 54.4 µg/mL.
In the case of `CCN(c1ccccc1)S(=O)(=O)c1ccc(C(=O)N(C)Cc2cccs2)cc1` it was 20.9 µg/mL (≈ 50.4 µM).
As for `CCC1(c2ccc(Cl)cc2)NC(=O)N(CC(=O)NC2(C#N)CCCCC2)C1=O` (configuration not stated), the figure is > 60.4 µg/mL.
`Cc1ccccc1N=C1NC(=O)/C(=C/c2cccn2C)S1` displayed a kinetic solubility of 3.3 µg/mL (≈ 11.1 µM).
The compound `Cc1ccc(-c2nc3ncccc3o2)cc1NC(=O)C(C)C` came in with a solubility (kinetic) of 25.3 µg/mL (≈ 85.7 µM).
The compound `COc1ccccc1Cc1nc(-c2cccnc2)no1` gave a kinetic solubility of 31.9 µg/mL (≈ 119 µM).
Regarding `CC(=O)c1c(O)c2cccc3c2n(c1=O)CCC3`, the kinetic solubility was > 36.5 µg/mL.
With `O=C(CC1SC(N2CCCCC2)=NC1=O)Nc1cccc(C(=O)NCc2ccccc2)c1` (configuration not stated), the kinetic solubility is > 67.6 µg/mL.
The compound `N#CCSc1nc2sccc2c(=O)n1-c1ccccc1` came in with a kinetic solubility of 37 µg/mL (≈ 124 µM).
For `O=C(CN1CCCCC1)c1c[nH]c2ccccc12`, the solubility (kinetic) is > 36.3 µg/mL.
As for `CCNC(=O)c1ccc(NS(=O)(=O)c2ccc3[nH]c(=O)[nH]c3c2)cc1`, the kinetic solubility was > 54.1 µg/mL.
As for `Cc1ccc(C(=O)Nc2cc(C)nn2CCC#N)cc1`, the figure is > 40.2 µg/mL.
On to `Cc1cccc(Nc2ccc3nonc3c2[N+](=O)[O-])c1C`, for which the solubility (kinetic) is < 0.2 µg/mL.
`CCc1noc(C)c1C(=O)OC(C)C(=O)Nc1ccc2c(c1)OCO2` (configuration not stated) yielded a kinetic solubility of 14.4 µg/mL (≈ 41.6 µM).
The compound `CC1CCN(C(=O)c2cc(-c3ccc4c(c3)OCO4)on2)CC1` displayed a solubility (kinetic) of 28.2 µg/mL (≈ 89.7 µM).
Compound `Cc1cccc(NC2=C(Cl)C(=O)OC2OC(=O)c2ccco2)c1` (configuration not stated) displayed a solubility (kinetic) of 35.1 µg/mL (≈ 105 µM).
`Cc1cc(SCc2ccc(C(F)(F)F)cc2)nc(=O)[nH]1` yielded a solubility (kinetic) of 7.5 µg/mL (≈ 25 µM).
In the case of `COc1ccccc1NC(=O)C(=O)/C=C(\O)c1ccccc1` it was 10.8 µg/mL (≈ 36.3 µM).
`O=C1NC2(CCCCC2)C(=O)N1Cc1cc(=O)n2ccsc2n1` registered a kinetic solubility of 44.7 µg/mL (≈ 134 µM).
Regarding `CCCCCC(=O)OC(CN1CCCC1=O)C[NH+]1CCCCCC1.[Cl-]` (configuration not stated), the kinetic solubility is > 56.2 µg/mL.
As for `Cc1ccccc1NS(=O)(=O)c1ccc2c(c1)oc(=O)n2C`, the figure is 2.3 µg/mL (≈ 7.22 µM).
For the compound `CCCNC(=O)Nc1cccc(NC(C)=O)c1`, the solubility (kinetic) is > 35.3 µg/mL.
The compound `CCNC(=S)Nc1ccc(NC(=O)c2ccccc2O)cc1` registered a kinetic solubility of 21.9 µg/mL (≈ 69.4 µM).
Compound `Cc1ccccc1OCC(=O)NCCCNC(=O)c1ccco1` displayed a solubility (kinetic) of 43.9 µg/mL (≈ 139 µM).
In the case of `Cc1cccc(CSCc2ccc(C(=O)NC3CCCC3)o2)c1` it was 25.6 µg/mL (≈ 77.7 µM); in that of `CC(=O)c1ccc(S(=O)(=O)N2CCNC(=O)C2)cc1`, > 42.3 µg/mL.
For the compound `COc1ccc(CNC(=O)CSc2nc3cccnc3s2)cc1`, the solubility (kinetic) worked out at 36.3 µg/mL (≈ 105 µM).
As for `Cc1ccc(S(=O)(=O)NC(Cc2ccccc2)C(=O)O)cc1` (configuration not stated), the solubility (kinetic) is > 47.9 µg/mL.
The compound `CCCCn1c(-c2cccs2)nc2oc3ccccc3c(=O)c2c1=O` displayed a kinetic solubility of 1.2 µg/mL (≈ 3.41 µM).
The compound `COc1ccc(CN(C)C(C)C(=O)Nc2cccc3ccccc23)cc1` (configuration not stated) gave a solubility (kinetic) of 7.8 µg/mL (≈ 22.4 µM).
As to `CCc1ccc(NC2=CC(=O)CC(C)(C)C2)cc1`, the solubility (kinetic) was 16.1 µg/mL (≈ 66.2 µM).
As to `COc1ccc(-n2c(C)c(C)c3c(NCCN(C)C)ncnc32)cc1`, the solubility (kinetic) is > 50.9 µg/mL.
As for `O=C(COC(=O)CC1CC2CCC1C2)Nc1ccc(F)cc1Cl` (configuration not stated), the figure is 13.2 µg/mL (≈ 38.8 µM).
In the case of `CN(Cc1ccccc1)C(=O)COc1cccnc1[N+](=O)[O-]`, the kinetic solubility was > 45.2 µg/mL.
On to `COC(=O)Cn1c2ccc(OC)cc2c2nc(C)sc21`, for which the solubility (kinetic) was > 43.6 µg/mL.
Take `COCC(=O)NC1CCCCCC1`: the kinetic solubility was > 27.8 µg/mL.
In the case of `O=C(COC(=O)COc1ccc2c(c1)CCC2)Nc1ccccc1C(F)(F)F` it was 5.3 µg/mL (≈ 13.5 µM).
Turning to `CC1(C)Cc2cccc(OCC(=O)NCc3ccccc3)c2O1`, the kinetic solubility was > 46.7 µg/mL.
`COc1cccc(CNC(=O)CCCc2c[nH]c3ccccc23)c1`: the kinetic solubility was 47 µg/mL (≈ 146 µM).
As for `CCCCOC(=O)c1ccc(NC(=O)C(=O)NCc2ccco2)cc1`, the figure is < 0.4 µg/mL.
In turn, `COc1ccc(CCNC(=O)c2cccc3ccccc23)cc1OC` returned a solubility (kinetic) of 38 µg/mL (≈ 113 µM).
With `Cc1c(Cl)cccc1NC(=S)NCC(O)c1ccccc1` (configuration not stated), the solubility (kinetic) was determined as 46.7 µg/mL (≈ 146 µM).
Consider `CCn1ccnc1CN1CCCC(C(=O)c2ccc(OC)cc2OC)C1` (configuration not stated), for which the solubility (kinetic) is 48.7 µg/mL (≈ 136 µM).
As for `COc1cccc(NC(=O)C(=S)NC2CCCCC2)c1`, the figure is 1.3 µg/mL (≈ 4.45 µM); as for `NC(=O)CC[C@H](NC(=O)c1ccc(F)cc1)C(=O)OCC(=O)NCc1ccc2c(c1)OCO2`, 1.2 µg/mL (≈ 2.61 µM).
The compound `Cc1cccc(OCCn2cnc(Cl)c2Cl)c1` displayed a kinetic solubility of 27.7 µg/mL (≈ 102 µM).
As to `COC(=O)c1ccc(NC(=O)c2ccc3nc(C)sc3c2)cc1`, the kinetic solubility was < 0.3 µg/mL.
Regarding `CC(C)n1c(C(F)(F)F)nc2cc(C(=O)N3CCOCC3)ccc21`, the kinetic solubility was > 51.2 µg/mL.
For `CSCCC1NC(=O)N(CC(=O)Nc2ccc(Cl)c(S(=O)(=O)N3CCOCC3)c2)C1=O` (configuration not stated), the solubility (kinetic) is > 73.6 µg/mL.
Take `Cc1nn(C)c(C)c1NC(=O)/C(C#N)=C\N(C)C`: the kinetic solubility was > 37.1 µg/mL.
Regarding `Cc1cccc(NC(=O)NCc2cccnc2)c1C`, the kinetic solubility amounted to 35.6 µg/mL (≈ 139 µM).
Take `COc1cccc(NC(=O)COC(=O)C2C3CC4OC(=O)C2C4C3)c1` (configuration not stated): the solubility (kinetic) was 49.5 µg/mL (≈ 143 µM).
`CN1CCN(c2ccc(CNC(=O)c3ccc4c(c3)OCCO4)cc2)CC1` gave a solubility (kinetic) of 49.7 µg/mL (≈ 135 µM).
Consider `O=C(O)/C(=N/NC(=O)c1ccc(Cl)cc1)c1ccccc1`, for which the kinetic solubility was > 45.4 µg/mL.
Turning to `c1ccc(-c2ccccc2OCCN2CCCC2)cc1`, the kinetic solubility came to 25 µg/mL (≈ 93.5 µM).
`COc1ccc(CC(=O)NC(=S)Nc2cccc(C)c2)cc1` displayed a solubility (kinetic) of 4 µg/mL (≈ 12.7 µM).
In the case of `Cc1cnc(C(=O)OCC(=O)Nc2cccc3ccccc23)cn1` it was > 48.2 µg/mL; in that of `CCCCOc1ccc(C2C(C(=O)c3ccc(C)o3)=C(O)C(=O)N2Cc2ccco2)cc1` (configuration not stated), 46.9 µg/mL (≈ 108 µM).
`COC(=O)c1ccc(Cl)c(NC(=O)c2cccc([N+](=O)[O-])c2C)c1` had a solubility (kinetic) of 0.7 µg/mL (≈ 2.01 µM).
Turning to `Cc1ncoc1C(=O)Nc1ncc([N+](=O)[O-])s1`, the solubility (kinetic) was > 38.1 µg/mL.
As to `CC1CN(C2=CC(=O)CCC2)CC(C)O1` (configuration not stated), the solubility (kinetic) was > 31.4 µg/mL.
`CCOc1ccccc1C(=O)NC1CCNCC1`: the solubility (kinetic) is > 37.2 µg/mL.
As for `O=C(Nc1cc(S(=O)(=O)N2CCOCC2)ccc1Cl)c1ccncc1`, the kinetic solubility was > 57.3 µg/mL.
In the case of `Cc1ccc(NC(=O)c2sc(N)nc2C)cc1`, the solubility (kinetic) is > 37.1 µg/mL.
As for `CCN(c1ccccc1)S(=O)(=O)c1cc(NC(=O)C2CC2)ccc1Cl`, the figure is 26.2 µg/mL (≈ 69.2 µM).
`CC(=O)Nc1ccc(S(=O)(=O)Nc2nccc(C)n2)cc1`: the kinetic solubility was > 46 µg/mL.
Regarding `O=C(NC1CCCc2ccccc21)C12CC3CC(CC(O)(C3)C1)C2` (configuration not stated), the solubility (kinetic) amounted to 41.4 µg/mL (≈ 127 µM).
`O=[N+]([O-])c1cccc(Oc2cnccn2)c1`: the solubility (kinetic) was found to be 31.8 µg/mL (≈ 146 µM).
In the case of `O=C(COC(=O)C1CC2CCCC(C1)C2=O)Nc1ccccc1` (configuration not stated) it was 46.5 µg/mL (≈ 147 µM); in that of `O=C1CC(=O)N(c2ccccc2)C(=O)N1c1ccccc1`, > 42 µg/mL.
